According to US8946423B2, “Highly soluble salt of pyrroloquinoline quinone and method for producing the same” (Mitsubishi Gas Chemical Company, Inc., priority 2010, dated 2015):

Test: Dissolution test: salts dissolved up to saturation, solubility determined by absorbance at 450 nm
Conditions: for Relative Ratio (solubility): relative to Disodium Salt of PQQ in water = 1; for solubility of pyrroloquinoline / solubility of pyrroloquinoline, mmol/L: saturation at room temperature of 23 to 28° C.
Protocol: The disodium salt of PQQ obtained by the method as described in Example 1 was used.
These salts were dissolved up to saturation at room temperature of 23 to 28° C., and these solutions each were diluted by 20 times or 400 times with a phosphate buffer having a pH of 7.5. For the diluted solutions each, an analysis of the ultraviolet-visible absorption spectra was carried out using a HITACHI U-2000 spectrometer.

## O=C([O-])c1cc(C(=O)[O-])c2c(n1)C(=O)C(=O)c1cc(C(=O)O)[nH]c1-2.[Na+].[Na+] [Disodium Salt of PQQ, reference compound]
  solubility in ethanol (in words): almost insoluble

## Dicholine Salt of PQQ
Solvent Ethanol
  Relative Ratio (solubility): 13.9
  solubility of pyrroloquinoline: 111 mM
Solvent Water
  Relative Ratio (solubility): 11.8
  solubility of pyrroloquinoline: 94 mM

## Monocholine Salt of PQQ
Solvent Ethanol
  Relative Ratio (solubility): 0.06
  solubility of pyrroloquinoline: 0.52 mM
Solvent Water
  Relative Ratio (solubility): 0.24
  solubility of pyrroloquinoline: 1.94 mM

## C[N+](C)(C)CCO.C[N+](C)(C)CCO.C[N+](C)(C)CCO.O=C(O)c1cc(C(=O)O)c2c(n1)C(=O)C(=O)c1cc(C(=O)O)[nH]c1-2 [Tricholine Salt of PQQ]
Solvent Ethanol
  solubility of pyrroloquinoline, mmol/L: ≥ 171 or mmol/L
Solvent Water
  solubility of pyrroloquinoline, mmol/L: ≥ 171 or mmol/L
